Experiments:
[1] = tested on: ivyleafspeedwell (Veronica hederaefolia); assay: Herbicidal effect by foliage and soil treatment; type: in vivo; conditions: 10 g ai/10a, evaluated after 14 days
Method in brief: (§1)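 Greenhouse pot test at 19–25 °C: spray of aqueous Tween 20 formulation onto foliage and soil of seedlings at cotyledonal–bifoliate stage, dose per area predetermined. Scoring on a rating scale after 14 days versus untreated.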

[2] = tested on: wild chamomile (Matricaria chamomilla); assay: Herbicidal effect by foliage and soil treatment; type: in vivo; conditions: 10 g ai/10a, evaluated after 14 days
Method in brief: as §1

[3] = tested on: sicklepod (Cassia obtusifolia); assay: Herbicidal effect by foliage and soil treatment; type: in vivo; conditions: 10 g ai/10a, evaluated after 14 days
Method in brief: as §1

[4] = tested on: common blackjack (Bidens pilosa); assay: Herbicidal effect by foliage and soil treatment; type: in vivo; conditions: 10 g ai/10a, evaluated after 14 days
Method in brief: as §1

[5] = tested on: field bindweed (Convolvulus arvensis); assay: Herbicidal effect by foliage and soil treatment; type: in vivo; conditions: 10 g ai/10a, evaluated after 14 days
Method in brief: as §1

[6] = tested on: redroot pigweed (Amaranthus retroflexus); assay: Herbicidal effect by foliage and soil treatment; type: in vivo; conditions: 10 g ai/10a, evaluated after 14 days
Method in brief: as §1

[7] = tested on: cleavers (Galium aparine); assay: Herbicidal effect by foliage and soil treatment; type: in vivo; conditions: 10 g ai/10a, evaluated after 14 days
Method in brief: as §1

[8] = tested on: black nightshade (Solanum nigrum); assay: Herbicidal effect by foliage and soil treatment; type: in vivo; conditions: 10 g ai/10a, evaluated after 14 days
Method in brief: as §1

[9] = tested on: common chickweed (Stellaria media); assay: Herbicidal effect by foliage and soil treatment; type: in vivo; conditions: 10 g ai/10a, evaluated after 14 days
Method in brief: as §1

[10] = tested on: velvetleaf (Abutilon theophrasti); assay: Herbicidal effect by foliage and soil treatment; type: in vivo; conditions: 10 g ai/10a, evaluated after 14 days
Method in brief: as §1

[11] = tested on: kediock (Sinapis arvensis); assay: Herbicidal effect by foliage and soil treatment; type: in vivo; conditions: 10 g ai/10a, evaluated after 14 days
Method in brief: as §1

With `CC[S+]([O-])CCNC(=O)c1cc(OC)cc(Oc2cccc(C(F)(F)F)c2)n1` (stereo not drawn) [Compound I-69, N-{2-(ethylsulfinyl)ethyl}-4-methoxy-6-{3-(trifluoromethyl)phenoxy}-2-pyridine carboxamide] the “herbicidal activity rating, VH (Veronica hederaefolia)” value [1] was 5 (percentage of weeds killed was not less than 80%), the “herbicidal activity rating, MC (Matricaria chamomilla)” value [2] was 3 (percentage of weeds killed was not less than 40% and less than 60%) and the “herbicidal activity rating, CO (Cassia obtusifolia)” value [3] was 5 (percentage of weeds killed was not less than 80%). For the same molecule, the “herbicidal activity rating, BP (Bidens pilosa)” value [4] was 3 (percentage of weeds killed was not less than 40% and less than 60%), the “herbicidal activity rating, CA (Convolvulus arvensis)” value [5] was 4 (percentage of weeds killed was not less than 60% and less than 80%) and the “herbicidal activity rating, AR (Amaranthus retroflexus)” value [6] was 5 (percentage of weeds killed was not less than 80%). The “herbicidal activity rating, GA (Galium aparine)” value [7] was 5 (percentage of weeds killed was not less than 80%), the “herbicidal activity rating, SN (Solanum nigrum)” value [8] was 5 (percentage of weeds killed was not less than 80%) and the “herbicidal activity rating, SM (Stellaria media)” value [9] was 4 (percentage of weeds killed was not less than 60% and less than 80%). The “herbicidal activity rating, AT (Abutilon theophrasti)” value [10] was 5 (percentage of weeds killed was not less than 80%), the “herbicidal activity rating, SA (Sinapis arvensis)” value [11] was 5 (percentage of weeds killed was not less than 80%) and the melting point was 77 to 79 °C.

From patent US6339045B1, “N-(unsubstituted or substituted)-4-substituted-6-(unsubstituted or substituted)phenoxy-2-pyridinecarboxamides or thiocarboxamides, processes for producing the same, and herbicides” (Kureha Kagaku Kogyo Kabushiki Kaisha, priority 1995, dated 2002)
